{"source": "patent US20170202782A1", "about": "(Abraxis BioScience, LLC, priority 2014, published 2017)", "key": {"[1]": {"system": "human pancreatic carcinoma MiaPACA2 xenograft tumors", "assay": "CIVO arrayed microinjection into xenografted MiaPACA2 tumors, immunofluorescence (CC3, pHH3)", "method": "Microinjections were performed using the CIVO™ arrayed microinjection device (Presage Biosciences, Seattle Wash.). This device enables simultaneous delivery of multiple drug samples, each individually, directly into spatially defined positions within a living tumor. The CIVO device having a 5 needle array was inserted transcutaneously into flank tumors of anesthetized mice.\n24 hours later, tumors were resected and sectioned across the axis of injection to produce histological sections of tumor that show the 5 different sites of injection.\nCircular regions of interests (ROI) centered on the injection sites were inscribed. Within each ROI, the fraction of cells expressing CC3 was mapped as a function of radial distance from the injection site. To generate radial response plots, calculations were made at 100 micron intervals and were based on all cells within a 100 micron wide band centered at each radial distance. Measurements began at 200 microns to exclude regions directly affected by needle induced injury.\nTumors from a first set of mice were processed for immunofluorescence analysis with CC3 antibodies 24 hours after injection (FIG. 3A), and tumors from a second set were processed for analysis with CC3 antibodies 48 hours after injection (FIG. 3B). […]"}, "[2]": {"target": "T1, Bcl-w (Homo sapiens, UniProt Q92843)", "T1 sequence (Q92843 1-193)": "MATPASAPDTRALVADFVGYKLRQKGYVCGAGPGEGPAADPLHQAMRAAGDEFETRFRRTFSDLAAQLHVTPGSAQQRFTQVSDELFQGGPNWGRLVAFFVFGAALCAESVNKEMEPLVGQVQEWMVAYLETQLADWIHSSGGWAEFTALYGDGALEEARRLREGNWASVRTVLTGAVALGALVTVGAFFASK", "conditions": "cited from earlier work"}}, "data": [{"smiles": "CC1(C)CCC(CN2CCN(c3ccc(C(=O)NS(=O)(=O)c4ccc(NCC5CCOCC5)c([N+](=O)[O-])c4)c(Oc4cnc5[nH]ccc5c4)c3)CC2)=C(c2ccc(Cl)cc2)C1", "note": "[ABT-199]", "values": [{"measurement": "CC3 positive cells at the site of injection", "setting": "[1]; MiaPACA2 tumors, 24 hours, diminished with increasing radial distance (FIG. 2)", "value": "increase"}, {"measurement": "synergy with Abraxane in inducing tumor cell death", "setting": "[1]; solid tumor models, combination with Abraxane (summary statement)", "value": "not observed"}]}, {"smiles": "CC1(C)CCC(c2ccc(Cl)cc2)=C(CN2CCN(c3ccc(C(=O)NS(=O)(=O)c4ccc(N[C@H](CCN5CCOCC5)CSc5ccccc5)c(S(=O)(=O)C(F)(F)F)c4)cc3)CC2)C1", "note": "[ABT-263]", "values": [{"measurement": "Ki", "setting": "[2]", "value": "≤ 1", "unit": "nM"}]}]}
